Converted amounts (≈) assume the structure as drawn.
Tests used:
[1] = pH stability, residual activity by radial diffusion assay; assay type: physicochemical; conditions: 30 μM, S. lutea ATCC 9341, triplicate
Method: (§1) To test the pH stability of BacCH91, a water solution of the bacteriocin (final concentration, 30 μM) was evaporated in a vacuum centrifuge and re-dissolved in (a) 100 mM sodium citrate pH 3.0, 4.0, 5.0, and 6.0; […] The solutions were incubated for 3 h at RT, and the residual activity of the bacteriocin was determined using the radial diffusion assay. The temperature stability of BacCH91 (30 μM final concentration) was determined in 50 mM Tris–HCl pH 7.4, 0.15 M NaCl and 50 mM bis-Tris pH 6.4, 0.15 M NaCl. The solutions were incubated for 1, 6, and 24 h at 37, 60, 80, and 99 °C. […] All of the above experiments were performed in triplicate. The final results are presented as means ± SD.

Micrococcus luteus CBM = experiment: MIC, micro-dilution method; assay type: cell-based; conditions: M. luteus CBM, CLSI M7-A7, cation-adjusted MHB
Description: (§2) S. aureus CH-91 was kindly provided by S. Takeuchi from Fukui Prefectural University, Japan (Takeuchi et al. [1999]). The strain has been deposited in the DSMZ collection under the number DSM 26258. Bacillus licheniformis NCTC 7224, Bacillus subtilis ATCC 6633, Lactococcus lactis subsp. lactis LOCK 0869, Micrococcus luteus strains DSMZ 20030 and CBM (clinical isolate), Sarcina lutea ATCC 9341, S. aureus strains ATCC 25923, M-122 (Polakowska et al. [2012]), Newman and RN4220, S. epidermidis ATCC 35347, Staphylococcus intermedius ATCC 29666, Staphylococcus pseudintermedius LMG 22219 (Devriese et al. [2005]), Staphylococcus saprophyticus ATCC 49453, Staphylococcus xylosus strains isolated from the skin of healthy chickens, Streptococcus mutans ATCC 25175, Streptococcus pneumoniae ATCC 49619, Escherichia coli K12 ATCC 10798, Klebsiella pneumoniae, Serratia marcescens, and Sphingomonas sp. AMC 3962 (Dziga et al. [2012]) were obtained from the collections of The Faculty of Biochemistry, Biophysics and Biotechnology, Jagiellonian University, Krakow, Poland. […]
(§3) The bactericidal activity of BacCH91 was determined using the micro-dilution method in compliance with Clinical and Laboratory Standards Institute guidelines M7-A7 (CLSI [2006]). […] After overnight incubation at 37 °C, the optical density (OD) at 600 nm was measured. […]

[2] = tested on: Micrococcus luteus DSMZ 20030; experiment: MIC, micro-dilution method; assay type: cell-based; conditions: M. luteus DSMZ 20030, as printed in the text, CLSI M7-A7, cation-adjusted MHB
Description: as §2, §3

StpC = experiment: Influence of StpC on biosynthesis and stability of BacCH91 in S. aureus CH-91 culture (E-64, HPLC); conditions: S. aureus CH-91 in TSB with or without E-64 (0.01, 0.1, 1.0 mM); samples at 5, 10, 24 h; HPLC peak area at 220 nm
Method: S. aureus CH-91 was cultured at 37 °C in TSB supplemented with the cysteine peptidase inhibitor E-64 (1-[N-[(L-3-trans-carboxyoxirane-2-carbonyl)-L-leucyl] amino]-4-guanidinobutane; Sigma) at final concentrations of 1.0, 0.1, and 0.01 mM. Aliquots were removed at 5, 10, and 24 h, and the bacteria-free supernatants were obtained by centrifugation.
To estimate the level of BacCH91, the collected supernatants were acidified with TFA (1 % final concentration, v/v) and filtered (0.45 μm filter). Aliquots (30 μl) were analyzed using HPLC (Kromasil C4 column, 250 × 4.6 mm; Supelco) and the same buffers as those used during the purification procedure. The column was flushed for 5 min following injection at a constant concentration of 34 % B. A linear gradient from 34 to 100 % B was then applied over 10 min at 1 ml/min. Under these conditions, BacCH91 was detected at 220 nm as a single peak eluting with a retention time of 14.6 min. The relative amount of bacteriocin was calculated as the area under the peak.

[3] = tested on: Pseudomonas aeruginosa ATCC 27853; assay type: cell-based
[4] = assay type: physicochemical; conditions: 30 μM, radial diffusion assay, S. lutea
Method: as §1

C/C=C(\NC(=O)[C@H](CCCCN)NC(=O)CNC(=O)[C@@H]1CS[C@@H](C)[C@@H](NC(=O)[C@@H]2CSC[C@@H](NC(=O)/C(=C/C)NC(=O)[C@@H](N)[C@@H](C)CC)C(=O)N[C@@H](Cc3ccccc3)C(=O)N[C@@H]([C@@H](C)CC)C(=O)NCC(=O)N2)C(=O)N2CCC[C@H]2C(=O)NCC(=O)N1)C(=O)NCC(=O)N[C@@H]1CSC[C@@H]2NC(=O)[C@H](Cc3ccccc3)NC(=O)[C@@H](CS/C=C\NC2=O)NC(=O)[C@H](CC(N)=O)NC(=O)[C@H](Cc2ccccc2)NC1=O [BacCH91]
residual bactericidal activity after incubation at pH 11.0 ([1]; 100 mM 3-cyclohexylamino-1-propanesulphonic acid-NaOH pH 11.0, 3 h at RT): complete inactivation
residual bactericidal activity after incubation at pH 7.0 and higher ([1]; 100 mM Tris–HCl pH 7.0, 8.0, 9.0 and 100 mM CAPS-NaOH pH 10.0, 11.0, 3 h at RT): gradual loss of bactericidal activity
residual bactericidal activity after incubation at pH 3.0–6.0 ([1]; 100 mM sodium citrate pH 3.0, 4.0, 5.0, 6.0, 3 h at RT): retained full bactericidal activity
MIC (Micrococcus luteus CBM): 0.04 µM (≈ 0.0831 µg/mL)
MIC [2]: 0.0025 µM (≈ 0.00519 µg/mL)
effect of StpC on the stability of the lantibiotic in culture (StpC): does not affect the stability
MIC [3]: >100 µM
residual activity after 1 h at temperatures up to 80 °C ([4]; 50 mM Tris–HCl pH 7.4, 0.15 M NaCl and 50 mM bis-Tris pH 6.4, 0.15 M NaCl, 37, 60, 80 °C, 1 h, triplicate): maintained its activity
residual activity after several hours at temperatures higher than 60 °C ([4]; pH 6.4 and pH 7.4 buffers with 0.15 M NaCl, 6 and 24 h time points, triplicate): complete inactivation
activity retained during incubation for 1 h at 80 °C ([4]; pH 6.4 and pH 7.4 buffers with 0.15 M NaCl, 80 °C, 1 h): ~100%
residual activity after short incubation at 99 °C ([4]; pH 6.4 and pH 7.4 buffers with 0.15 M NaCl, 99 °C, triplicate): complete inactivation

From publication PMC3724985, “Isolation, biochemical characterization, and cloning of a bacteriocin from the poultry-associated Staphylococcus aureus strain CH-91” (Applied Microbiology and Biotechnology, 2012)
